Reference: patent publication US9670231B2, “Fused tricyclic amide compounds as multiple kinase inhibitors” (BEIGENE, LTD., priority 2013, dated 2017)

How the values were obtained:
Format in all cases: biochemical
[1] = biological target: wild type B-Raf (Homo sapiens (Human), UniProt P15056); experiment: WT BRaf IC50 assay, TR-FRET; design: Braf-WT Km ATP, % at 100 nM: scale not given here; conditions: for IC50: Km ATP ([…] ATP), read-out: IC50 Braf-WT Km ATP; for Braf-WT Km ATP, % at 100 nM: at 100 nM compound
wild type B-Raf, sequence (P15056 whole entry): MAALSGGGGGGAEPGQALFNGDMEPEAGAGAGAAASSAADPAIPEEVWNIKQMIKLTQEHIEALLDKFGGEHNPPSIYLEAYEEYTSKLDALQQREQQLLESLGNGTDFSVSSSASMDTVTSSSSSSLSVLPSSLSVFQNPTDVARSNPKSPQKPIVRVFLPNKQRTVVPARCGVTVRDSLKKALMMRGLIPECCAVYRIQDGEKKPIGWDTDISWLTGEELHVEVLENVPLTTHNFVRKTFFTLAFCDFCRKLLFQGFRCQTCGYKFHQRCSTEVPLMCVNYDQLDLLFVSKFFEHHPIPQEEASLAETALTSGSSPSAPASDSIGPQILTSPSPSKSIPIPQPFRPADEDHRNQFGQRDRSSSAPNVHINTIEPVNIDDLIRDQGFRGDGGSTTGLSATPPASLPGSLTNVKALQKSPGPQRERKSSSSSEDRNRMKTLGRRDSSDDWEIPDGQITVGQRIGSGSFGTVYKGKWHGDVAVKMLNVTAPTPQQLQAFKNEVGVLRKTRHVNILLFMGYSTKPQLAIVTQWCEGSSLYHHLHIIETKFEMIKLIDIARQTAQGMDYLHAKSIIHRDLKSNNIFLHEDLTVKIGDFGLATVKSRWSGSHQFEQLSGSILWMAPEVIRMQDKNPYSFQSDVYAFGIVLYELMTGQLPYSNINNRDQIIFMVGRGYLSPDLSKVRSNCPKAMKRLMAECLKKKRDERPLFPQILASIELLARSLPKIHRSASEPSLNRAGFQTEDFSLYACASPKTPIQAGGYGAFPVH
Description: WT BRaf IC50 Assay Protocol
Compounds disclosed herein were tested against wild type B-Raf (PV3848, from Invitrogen) in a time-resolved fluorescence energy transfer assay. […] The enzyme was incubated with the compounds disclosed herein at room temperature for 120 minutes and the reactions were initiated by the addition of ATP and GST-MEK1. After incubating at room temperature for 60 minutes, an equal volume of stop buffer containing 25 mM Tris pH7.4, 400 mM KF, 50 mM EDTA, 0.1% BSA, 0.01% Triton X-100, 1 test of Eu3+Cryptate-conjugated rabbit polyclonal antibody anti-Phospho MEK1/2 (Ser217/221) and 1 test of d2-conjugated mouse monoclonal antibody anti-glutathione S-transferase was added to stop the reactions. Plates were sealed and incubated at room temperature for 1.5 hours, and then the TR-FRET signals were read on BMG PHERAstar FS instrument. The IC50 for each compound was calculated by non linear regression by Graphpad Prism software.

[2] = biological target: B-Raf (V600E) (Homo sapiens (Human), UniProt P15056, V600E); experiment: Raf IC50 assay, TR-FRET, B-Raf (V600E); conditions: 0.1 mM ATP; read-out: IC50 BRAF-V600E
B-Raf (V600E), sequence (P15056 whole entry V600E): as the sequence (P15056 whole entry) above, with V600E counted along it
Description: The enzyme was incubated with the compounds disclosed herein at room temperature for 60 minutes and the reactions were initiated by the addition of ATP and GST-MEK1. After reaction at room temperature for 60 minutes, an equal volume of stop/detection solution was added according to the manufacture's instruction (CisBio Bioassays). […] The IC50 for each compound was derived from fitting the dose-response % inhibition data to the four-parameter logistic model by Graphpad Prism software.

[3] = biological target: WT EGFR kinase domain (Homo sapiens (Human), UniProt P00533); experiment: EGFR enzymatic assay, TR-FRET, WT EGFR
WT EGFR kinase domain, sequence (P00533 669-1210): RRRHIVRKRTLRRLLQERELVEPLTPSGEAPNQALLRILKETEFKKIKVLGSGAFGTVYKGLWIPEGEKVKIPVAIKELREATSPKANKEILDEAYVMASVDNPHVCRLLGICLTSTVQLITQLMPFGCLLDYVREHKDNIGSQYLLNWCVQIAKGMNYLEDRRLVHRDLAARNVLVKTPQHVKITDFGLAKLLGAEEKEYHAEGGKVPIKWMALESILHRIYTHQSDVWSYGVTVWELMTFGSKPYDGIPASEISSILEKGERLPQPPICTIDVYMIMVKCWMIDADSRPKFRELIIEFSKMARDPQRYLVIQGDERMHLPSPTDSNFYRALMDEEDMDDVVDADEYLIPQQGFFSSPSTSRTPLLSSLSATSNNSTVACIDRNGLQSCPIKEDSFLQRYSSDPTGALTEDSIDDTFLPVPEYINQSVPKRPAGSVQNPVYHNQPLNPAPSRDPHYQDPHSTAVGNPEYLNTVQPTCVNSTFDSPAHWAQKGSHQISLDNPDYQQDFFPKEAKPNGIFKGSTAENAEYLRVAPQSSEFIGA
Description: (§1) Compounds disclosed herein were tested against WT EGFR kinase domain (aa.669-1210, Carna Biosciences, 08-115), EGFR T790M/L858R kinase domain (aa.669-1210, Carna Biosciences, 08-510) and EGFR L858R kinase domain (aa.669-1210, Carna Biosciences, 08-502) in assays based on time-resolved fluorescence-resonance energy transfer methodology. The assay was carried out in 384-well low volume black plate in a reaction mixture containing EGFR kinases, 20 LM for EGFR WT and T790M/L858R, and 125 LM for EGFR L858R), biotin-TK substrate and 0-5 LM compounds in buffer containing 50 mM HEPES pH7.5, 10 mM MgCl2, 1 mM EGTA, 0.01% Brij-35, 2.5 mM DTT, 0.1% BSA. The kinase was incubated with the compounds disclosed herein at room temperature for 120 minutes and the reaction was initiated by the addition of ATP and biotin-TK substrate. After reaction at room temperature for 30 minutes, an equal volume of stop/detection solution was added according to the manufacture's instruction (CisBio Bioassays). The stop/detection solution contained TK-Antibody-Cryptate and Streptavidin-XL665 in buffer containing 25 mM Tris pH7.4, 400 mM KF, 50 mM EDTA, 0.01% BSA, 0.01% Triton X-100. Plates were sealed and incubated at room temperature for 1 hour, and the TR-FRET signals were read on BMG PHERAstar FS instrument. The IC50 of an inhibitor was derived from fitting the % inhibition data at each compound concentration to the four-parameter logistic equation by Graphpad Prism software.

[4] = biological target: EGFR L858R kinase domain (Homo sapiens (Human), UniProt P00533, L858R); experiment: EGFR enzymatic assay, TR-FRET, EGFR L858R
EGFR L858R kinase domain, sequence (P00533 669-1210 L858R): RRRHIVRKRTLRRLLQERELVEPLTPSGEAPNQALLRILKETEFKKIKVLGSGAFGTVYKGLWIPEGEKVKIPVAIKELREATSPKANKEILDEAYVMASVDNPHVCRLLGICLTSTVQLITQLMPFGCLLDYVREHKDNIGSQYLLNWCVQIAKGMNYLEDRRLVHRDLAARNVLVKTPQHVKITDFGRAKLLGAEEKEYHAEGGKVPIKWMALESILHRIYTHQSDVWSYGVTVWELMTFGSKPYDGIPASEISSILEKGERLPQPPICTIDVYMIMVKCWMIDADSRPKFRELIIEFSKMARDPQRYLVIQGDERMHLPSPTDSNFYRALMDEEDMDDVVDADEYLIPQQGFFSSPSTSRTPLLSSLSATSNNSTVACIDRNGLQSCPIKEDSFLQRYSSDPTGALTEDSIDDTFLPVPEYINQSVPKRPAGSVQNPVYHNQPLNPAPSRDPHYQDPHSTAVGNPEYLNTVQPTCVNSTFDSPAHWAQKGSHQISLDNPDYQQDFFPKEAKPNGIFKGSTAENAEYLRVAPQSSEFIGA
Description: as §1

[5] = biological target: EGFR T790M/L858R kinase domain (Homo sapiens (Human), UniProt P00533, L858R/T790M); experiment: EGFR enzymatic assay, TR-FRET, EGFR T790M/L858R
EGFR T790M/L858R kinase domain, sequence (P00533 669-1210 T790M/L858R): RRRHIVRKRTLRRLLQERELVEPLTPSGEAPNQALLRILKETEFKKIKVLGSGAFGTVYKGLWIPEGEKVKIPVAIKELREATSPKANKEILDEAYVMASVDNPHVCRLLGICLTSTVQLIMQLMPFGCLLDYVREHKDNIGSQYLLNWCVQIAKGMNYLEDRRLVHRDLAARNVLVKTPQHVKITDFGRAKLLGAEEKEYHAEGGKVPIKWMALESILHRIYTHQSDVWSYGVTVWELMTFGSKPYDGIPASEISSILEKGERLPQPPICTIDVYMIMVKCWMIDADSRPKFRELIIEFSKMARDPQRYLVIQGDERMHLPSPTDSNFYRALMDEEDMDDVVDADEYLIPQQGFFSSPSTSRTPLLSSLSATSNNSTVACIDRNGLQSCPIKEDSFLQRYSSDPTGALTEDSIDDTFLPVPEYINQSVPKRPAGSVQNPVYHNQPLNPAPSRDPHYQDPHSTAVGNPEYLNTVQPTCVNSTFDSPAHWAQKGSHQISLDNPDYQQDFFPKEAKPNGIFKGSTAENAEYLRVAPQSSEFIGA
Description: as §1

IC50 [1] | IC50 [2] | Braf-WT Km ATP, % at 100 nM [1] | IC50 [3] | IC50 [4] | IC50 [5] | SMILES
32 nM | – | – | – | – | – | CN(C)[C@H]1CCN(Cc2ccc(C(=O)N[C@@H]3[C@H]4Oc5ccc(Oc6ccnc7c6CCC(=O)N7)cc5[C@@H]34)cc2C(F)(F)F)C1 [Compound 1.9]
16 nM | – | – | – | – | – | CN(C)C1CCN(Cc2ccc(C(=O)N[C@@H]3[C@H]4Oc5ccc(Oc6ccnc7c6CCC(=O)N7)cc5[C@@H]34)cc2C(F)(F)F)CC1 [Compound 1.20]
– | 1.4 nM | 96% at 100 nM | 93 nM | 60 nM | 538 nM | O=C1CCc2c(Oc3ccc4c(c3)[C@H]3[C@H](NC(=O)c5ccc(F)cc5)[C@H]3O4)ccnc2N1 [Compound 1.36]
– | 7.5 nM | 80% at 100 nM | 1240 nM | 529 nM | > 5000 nM | Cc1cccc(F)c1C(=O)N[C@@H]1[C@H]2Oc3ccc(Oc4ccnc5c4CCC(=O)N5)cc3[C@@H]12 [Compound 1.37]
– | 4.7 nM | 84% at 100 nM | 425 nM | 79 nM | 3190 nM | O=C1CCc2c(Oc3ccc4c(c3)[C@H]3[C@H](NC(=O)c5ccccc5F)[C@H]3O4)ccnc2N1 [Compound 1.38]
– | 1.2 nM | 100% at 100 nM | 59 nM | 29 nM | 648 nM | O=C1CCc2c(Oc3ccc4c(c3)[C@H]3[C@H](NC(=O)c5ccc(F)c(F)c5)[C@H]3O4)ccnc2N1 [Compound 1.41]
– | 9.2 nM | 102% at 100 nM | – | – | – | O=C1CCc2c(Oc3ccc4c(c3)[C@H]3[C@H](NC(=O)c5ccc(C(F)(F)F)c(F)c5)[C@H]3O4)ccnc2N1 [Compound 1.42]
– | 4.8 nM | 93% at 100 nM | 243 nM | 63 nM | > 5000 nM | O=C1CCc2c(Oc3ccc4c(c3)[C@H]3[C@H](NC(=O)c5ccccc5C(F)(F)F)[C@H]3O4)ccnc2N1 [Compound 1.44]
– | 3.1 nM | 101% at 100 nM | 8.5 nM | 5.4 nM | 104 nM | O=C1CCc2c(Oc3ccc4c(c3)[C@H]3[C@H](NC(=O)c5cc(C(F)(F)F)ccn5)[C@H]3O4)ccnc2N1 [Compound 1.45, N-((1S,1aS,6bS)-5-((7-oxo-5,6,7,8-tetrahydro-1,8-naphthyridin-4-yl)oxy)-1a,6b-dihydro-1H-cyclopropa[b]benzofuran-1-yl)-4-(trifluoromethyl)picolinamide]
15 nM | – | – | – | – | – | CN1CCN(CCOc2ccc(C(=O)N[C@@H]3[C@H]4Oc5ccc(Oc6ccnc7c6CCC(=O)N7)cc5[C@@H]34)cc2C(F)(F)F)CC1 [Compound 1.52]
– | 24 nM | – | 628 nM | 230 nM | 1300 nM | CCCCCCCCCC(=O)N[C@@H]1[C@H]2Oc3ccc(Oc4ccnc5c4CCC(=O)N5)cc3[C@@H]12 [Compound 1.70]
– | 10 nM | – | 2.7 nM | 2.1 nM | 21 nM | CN(C)C1CCN(c2ccc(C(=O)N[C@@H]3[C@H]4Oc5ccc(Oc6ccnc7c6CCC(=O)N7)cc5[C@@H]34)cc2C(F)(F)F)CC1 [Compound 1.71]
– | 7.7 nM | – | 3 nM | 1 nM | 32 nM | COc1cc(C(=O)N[C@@H]2[C@H]3Oc4ccc(Oc5ccnc6c5CCC(=O)N6)cc4[C@@H]23)ccc1CN1CCN(C)CC1 [Compound 1.72]
– | 6.9 nM | – | 1.8 nM | 0.91 nM | 34 nM | CCN1CCN(Cc2ccc(C(=O)N[C@@H]3[C@H]4Oc5ccc(Oc6ccnc7c6CCC(=O)N7)cc5[C@@H]34)cc2OC)CC1 [Compound 1.73]
– | 10 nM | – | 0.74 nM | 0.17 nM | 0.2 nM | CCN1CCC(Cc2ccc(C(=O)N[C@@H]3[C@H]4Oc5ccc(Oc6ccnc7c6CCC(=O)N7)cc5[C@@H]34)cc2C(F)(F)F)CC1 [Compound 1.74, 4-((1-ethylpiperidin-4-yl)methyl)-N-((1S,1aS,6bS)-5-((7-oxo-5,6,7,8-tetrahydro-1,8-naphthyridin-4-yl)oxy)-1a,6b-dihydro-1H-cyclopropa[b]benzofuran-1-yl)-3-(trifluoromethyl)benzamide]
– | 21 nM | – | 1.3 nM | 0.26 nM | 0.18 nM | CCN1CCC(=Cc2ccc(C(=O)N[C@@H]3[C@H]4Oc5ccc(Oc6ccnc7c6CCC(=O)N7)cc5[C@@H]34)cc2C(F)(F)F)CC1 [Compound 1.75, 4-((1-ethylpiperidin-4-ylidene)methyl)-N-((1S,1aS,6bS)-5-((7-oxo-5,6,7,8-tetrahydro-1,8-naphthyridin-4-yl)oxy)-1a,6b-dihydro-1H-cyclopropa[b]benzofuran-1-yl)-3-(trifluoromethyl)benzamide]
– | 3.7 nM | – | 4.2 nM | 18 nM | 31 nM | O=C1CCc2c(Oc3ccc4c(c3)[C@H]3[C@H](NC(=O)c5ccc(CO)c(C(F)(F)F)c5)[C@H]3O4)ccnc2N1 [Compound 1.76, 4-(hydroxymethyl)-N-((1S,1aS,6bS)-5-((7-oxo-5,6,7,8-tetrahydro-1,8-naphthyridin-4-yl)oxy)-1a,6b-dihydro-1H-cyclopropa[b]benzofuran-1-yl)-3-(trifluoromethyl)benzamide]
– | 10 nM | – | 1.2 nM | 0.79 nM | 8 nM | CCN1CCN(Cc2ccc(C(=O)N[C@@H]3[C@H]4Oc5ccc(Oc6ccnc7c6CCC(=O)N7)cc5[C@@H]34)cc2OC(F)(F)F)CC1 [Compound 1.78, 4-((4-ethylpiperazin-1-yl)methyl)-N-((1S,1aS,6bS)-5-((7-oxo-5,6,7,8-tetrahydro-1,8-naphthyridin-4-yl)oxy)-1a,6b-dihydro-1H-cyclopropa[b]benzofuran-1-yl)-3-(trifluoromethoxy)benzamide]
– | 49 nM | – | 6.8 nM | 4.1 nM | 7.3 nM | CNC(=O)c1cc(Oc2ccc3c(c2)[C@H]2[C@H](NC(=O)c4ccc(CN5CCN(C)CC5)c(C(F)(F)F)c4)[C@H]2O3)ccn1 [Compound 2.4]
– | 58 nM | – | 4.1 nM | 0.47 nM | 0.82 nM | CCN1CCN(Cc2ccc(C(=O)N[C@@H]3[C@H]4Oc5ccc(Oc6ccnc(N)c6)cc5[C@@H]34)cc2C(F)(F)F)CC1 [Compound 2.5, N-((1S,1aS,6bS)-5-((2-aminopyridin-4-yl)oxy)-1a,6b-dihydro-1H-cyclopropa[b]benzofuran-1-yl)-4-((4-ethylpiperazin-1-yl)methyl)-3-(trifluoromethyl)benzamide]
– | 17 nM | – | 0.43 nM | 0.085 nM | 0.076 nM | CCN1CCN(Cc2ccc(C(=O)N[C@@H]3[C@H]4Oc5ccc(Oc6ccnc7c6CNC(=O)N7)cc5[C@@H]34)cc2C(F)(F)F)CC1 [Compound 2.6, 4-((4-ethylpiperazin-1-yl)methyl)-N-((1S,1aS,6bS)-5-((2-oxo-1,2,3,4-tetrahydropyrido[2,3-d]pyrimidin-5-yl)oxy)-1a,6b-dihydro-1H-cyclopropa[b]benzofuran-1-yl)-3-(trifluoromethyl)benzamide]
– | 16 nM | – | 0.67 nM | 0.15 nM | 0.084 nM | CN1CCN(Cc2ccc(C(=O)N[C@@H]3[C@H]4Oc5ccc(Oc6ccnc7c6CNC(=O)N7)cc5[C@@H]34)cc2C(F)(F)F)CC1 [Compound 2.7]
